# Paper PMC8079033, “Design, synthesis, anticancer evaluation, and molecular modelling studies of novel tolmetin derivatives as potential VEGFR-2 inhibitors and apoptosis inducers” (Journal of Enzyme Inhibition and Medicinal Chemistry, 2021)
# What was measured:
# [1] = system: SF-268; test: NCI 60-cell line one-dose antiproliferative screen (SRB); assay type: cell-based; conditions: Homo sapiens, read-out: growth inhibition % (GI%)
# Method: (§1) Anticancer activity screening of the newly synthesised compounds was measured in vitro utilising 60 different human tumour cell lines provided by US National Cancer Institute according to previously reported standard procedure[41–43] as follows: Cells are inoculated into 96-well microtiter plates in 100 ml. After cell inoculation, the microtiter plates are incubated at 37 °C, 5% CO2, 95% air, and 100% relative humidity for 24 h prior to addition of experimental compounds. After 24 h, two plates of each cell line are fixed in situ with TCA, to represent a measurement of the cell population for each cell line at the time of compound addition (Tz). Experimental compounds are solubilised in dimethyl sulfoxide at 400-fold the desired final maximum test concentration and stored frozen prior to use. At the time of compound addition, an aliquot of frozen concentrate is thawed and diluted to twice the desired final maximum test concentration with a complete medium containing […] gentamicin. Aliquots of […] of the compounds dilutions are added to the appropriate microtiter wells already containing 100 ml of medium, resulting in the required final compound concentration. Following compound addition, the plates are incubated for an additional 48 h at 37 °C, 5% CO2, 95% air, and 100% relative humidity. For adherent cells, the assay is terminated by the addition of cold trichloroacetic acid (TCA). Cells are fixed in situ by the gentle addition of 50 ml of cold 50% (w/v) TCA (final concentration, 10% TCA) and incubated for […] at 4 °C. The supernatant is discarded, and the plates are washed five times with tap water and air-dried. Sulforhodamine B (SRB) solution (100 ml) at 0.4% (w/v) in 1% acetic acid is added to each well, and plates are incubated for 10 min at room temperature. After staining, the unbound dye is removed by washing five times with 1% acetic acid and the plates are air-dried. The bound stain is subsequently solubilised with a 10 mM trizma base, and the absorbance is read on an automated plate reader at a wavelength of 515 nm. For suspension cells, the methodology is the same except that the assay is terminated by fixing settled cells at the bottom of the wells by gently adding 50 ml of 80% TCA (final concentration, 16% TCA). Using the absorbance measurements [time zero, (Tz), control growth, (C), and test growth in the presence of compound (Ti)], the percentage growth is calculated for each compound. The One-dose data are reported as a mean graph of the percent growth of treated cells. The reported number is growth relative to the no-compound control, and relative to the time zero number of cells. This allows the detection of both growth inhibition and lethality.
# (§2) Fifteen newly synthesised compounds were tested for their in vitro antiproliferative activity by the National Cancer Institute (NCI), Maryland, USA[50], under the Developmental Therapeutic Program (DTP)[41]^,[43]^,[51]^,[52]. The tested compounds were evaluated at a concentration of 10 µM on a panel of 60 tumour cell lines representing leukaemia and non-small cell lung, colon, CNS, melanoma, ovarian, renal, prostate, and breast cancers. The antiproliferative activity was presented by the NCI as percent growth of the treated cells and is presented in Table 1 as growth inhibition percentage (GI%) achieved by the tested compounds.
# [2] = system: BT-5; test: as above; assay type: cell-based; conditions: Homo sapiens, read-out: growth inhibition % (GI%)
# Method: as §1, §2
# [3] = system: SNB-19; test: as above; assay type: cell-based; conditions: Homo sapiens, read-out: growth inhibition % (GI%)
# Method: as §1, §2
# [4] = system: SF-539; test: as above; assay type: cell-based; conditions: Homo sapiens, read-out: growth inhibition % (GI%)
# Method: as §1, §2
# [5] = system: ACHN; test: as above; assay type: cell-based; conditions: Homo sapiens, read-out: growth inhibition % (GI%)
# Method: as §1, §2
# [6] = system: SNB-75; test: as above; assay type: cell-based; conditions: Homo sapiens, read-out: growth inhibition % (GI%)
# Method: as §1, §2
# [7] = system: HOP-92; test: as above; assay type: cell-based; conditions: Homo sapiens, read-out: growth inhibition % (GI%)
# Method: as §1, §2
# [8] = system: PC-3; test: as above; assay type: cell-based; conditions: Homo sapiens, read-out: growth inhibition % (GI%)
# Method: as §1, §2
# [9] = system: MDA-MB-231/ATCC; test: as above; assay type: cell-based; conditions: Homo sapiens, read-out: growth inhibition % (GI%)
# Method: as §1, §2
# [10] = system: HCT-116; test: as above; assay type: cell-based; conditions: Homo sapiens, read-out: growth inhibition % (GI%)
# Method: as §1, §2
# [11] = system: RPMI-8226; test: as above; assay type: cell-based; conditions: Homo sapiens, read-out: growth inhibition % (GI%)
# Method: as §1, §2
# [12] = system: IGROV1; test: as above; assay type: cell-based; conditions: Homo sapiens, IGROV-1, read-out: growth inhibition % (GI%)
# Method: as §1, §2
# [13] = system: SN 12 C; test: as above; assay type: cell-based; conditions: Homo sapiens, SN12C, read-out: growth inhibition % (GI%)
# Method: as §1, §2
# [14] = system: OVCAR-8; test: as above; assay type: cell-based; conditions: Homo sapiens, read-out: growth inhibition % (GI%)
# Method: as §1, §2
# [15] = system: U251; test: as above; assay type: cell-based; conditions: Homo sapiens, U-251, read-out: growth inhibition % (GI%)
# Method: as §1, §2
# [16] = system: T-47D; test: as above; assay type: cell-based; conditions: Homo sapiens, T47D, read-out: growth inhibition % (GI%)
# Method: as §1, §2
# [17] = system: A549/ATCC; test: as above; assay type: cell-based; conditions: Homo sapiens, read-out: growth inhibition % (GI%)
# Method: as §1, §2
# [18] = system: SK-MEL-5; test: as above; assay type: cell-based; conditions: Homo sapiens, read-out: growth inhibition % (GI%)
# Method: as §1, §2
# [19] = system: A498; test: as above; assay type: cell-based; conditions: Homo sapiens, read-out: growth inhibition % (GI%)
# Method: as §1, §2
# [20] = system: UACC-62; test: as above; assay type: cell-based; conditions: Homo sapiens, read-out: growth inhibition % (GI%)
# Method: as §1, §2
# [21] = system: OVCAR-4; test: as above; assay type: cell-based; conditions: Homo sapiens, read-out: growth inhibition % (GI%)
# Method: as §1, §2
# [22] = system: K-562; test: as above; assay type: cell-based; conditions: Homo sapiens, K562, read-out: growth inhibition % (GI%)
# Method: as §1, §2
# [23] = system: HOP-62; test: as above; assay type: cell-based; conditions: Homo sapiens, read-out: growth inhibition % (GI%)
# Method: as §1, §2
# [24] = system: SW-620; test: as above; assay type: cell-based; conditions: Homo sapiens, read-out: growth inhibition % (GI%)
# Method: as §1, §2
# [25] = system: UO-31; test: as above; assay type: cell-based; conditions: Homo sapiens, read-out: growth inhibition % (GI%)
# Method: as §1, §2
# [26] = system: MCF7; test: as above; assay type: cell-based; conditions: Homo sapiens, read-out: growth inhibition % (GI%)
# Method: as §1, §2
# [27] = system: NCI-H522; test: as above; assay type: cell-based; conditions: Homo sapiens, read-out: growth inhibition % (GI%)
# Method: as §1, §2
# [28] = system: NCI-H23; test: as above; assay type: cell-based; conditions: Homo sapiens, read-out: growth inhibition % (GI%)
# Method: as §1, §2
# [29] = system: CAKI-1; test: as above; assay type: cell-based; conditions: Homo sapiens, read-out: growth inhibition % (GI%)
# Method: as §1, §2
# [30] = system: UACC-257; test: as above; assay type: cell-based; conditions: Homo sapiens, read-out: growth inhibition % (GI%)
# Method: as §1, §2
# [31] = system: LOX IMVI; test: as above; assay type: cell-based; conditions: Homo sapiens, read-out: growth inhibition % (GI%)
# Method: as §1, §2
# [32] = system: OVCAR-5; test: as above; assay type: cell-based; conditions: Homo sapiens, read-out: growth inhibition % (GI%)
# Method: as §1, §2
# [33] = system: HS 578 T; test: as above; assay type: cell-based; conditions: Homo sapiens, read-out: growth inhibition % (GI%)
# Method: as §1, §2
# [34] = system: HCT-15; test: as above; assay type: cell-based; conditions: Homo sapiens, read-out: growth inhibition % (GI%)
# Method: as §1, §2
# [35] = system: HCC-2998; test: as above; assay type: cell-based; conditions: Homo sapiens, read-out: growth inhibition % (GI%)
# Method: as §1, §2
# [36] = system: NCI-H226; test: as above; assay type: cell-based; conditions: Homo sapiens, read-out: growth inhibition % (GI%)
# Method: as §1, §2
# [37] = system: MOLT-4; test: as above; assay type: cell-based; conditions: Homo sapiens, read-out: growth inhibition % (GI%)
# Method: as §1, §2
# [38] = system: EKVX; test: as above; assay type: cell-based; conditions: Homo sapiens, read-out: growth inhibition % (GI%)
# Method: as §1, §2
smiles,measurement,setting,value
"Cc1ccc(C(=O)c2ccc(CC(=O)NNC(=O)Nc3c(Cl)cccc3Cl)n2C)cc1 [Compound 8a, N-(2,6-Dichlorophenyl)-2–(2-(1-methyl-5–(4-methylbenzoyl)-1H-pyrrol-2-yl)acetyl) hydrazinecarboxamide]",melting point,,245 to 247 °C
same,inhibition at 10 µM,[1],< 10%
same,inhibition at 10 µM,[2],< 10%
same,inhibition at 10 µM,[3],17.7%
same,inhibition at 10 µM,[4],< 10%
same,inhibition at 10 µM,[5],< 10%
same,inhibition at 10 µM,[6],28.1%
same,inhibition at 10 µM,[7],< 10%
same,inhibition at 10 µM,[8],10.5%
same,inhibition at 10 µM,[9],< 10%
same,inhibition at 10 µM,[10],< 10%
same,inhibition at 10 µM,[11],< 10%
same,inhibition at 10 µM,[12],14%
same,inhibition at 10 µM,[13],< 10%
same,inhibition at 10 µM,[14],< 10%
same,inhibition at 10 µM,[15],11.7%
same,inhibition at 10 µM,[16],18%
same,inhibition at 10 µM,[17],< 10%
same,inhibition at 10 µM,[18],< 10%
same,inhibition at 10 µM,[19],< 10%
same,inhibition at 10 µM,[20],11.1%
same,inhibition at 10 µM,[21],16%
same,inhibition at 10 µM,[22],< 10%
same,inhibition at 10 µM,[23],11.4%
same,inhibition at 10 µM,[24],< 10%
same,inhibition at 10 µM,[25],31.1%
same,inhibition at 10 µM,[26],10%
same,inhibition at 10 µM,[27],15.9%
same,inhibition at 10 µM,[28],< 10%
same,inhibition at 10 µM,[29],14.9%
same,inhibition at 10 µM,[30],< 10%
same,inhibition at 10 µM,[31],< 10%
same,inhibition at 10 µM,[32],< 10%
same,inhibition at 10 µM,[33],< 10%
same,inhibition at 10 µM,[34],< 10%
same,inhibition at 10 µM,[35],< 10%
same,inhibition at 10 µM,[36],< 10%
same,inhibition at 10 µM,[37],< 10%
same,inhibition at 10 µM,[38],< 10%
